The numbers were not newly measured in patent publication EP0839024B1, “MONENSIN FORMULATIONS” (Elli Lilly & Co.(NZ)Limited, priority 1995, dated 1997), which cites them from elsewhere.

The conditions of data set [1]: as indicated in EP 0,139,595 (monensin and its sodium salt) and US Patent 3,715,372 (lasalocid); cited from earlier work.
For data set [2] the following is noted: Example 1 of EP 0,139,595: 250 g mycelium containing 10% monensin, 1250 cc propylene glycol, room temperature, 2 hours, ultrasound; cited from earlier work.

Take `CC[C@@H](C(=O)[C@@H](C)[C@@H](O)[C@H](C)CCc1ccc(C)c(O)c1C(=O)O)[C@H]1O[C@](CC)([C@H]2CC[C@](O)(CC)[C@H](C)O2)C[C@@H]1C` [lasalocid]: the solubility in water entry in data set [1] is “completely insoluble”. In the case of `CC[C@@]1([C@@H]2O[C@@H]([C@H]3O[C@@](O)(CO)[C@H](C)C[C@@H]3C)C[C@@H]2C)CC[C@H]([C@]2(C)CC[C@]3(C[C@H](O)[C@@H](C)[C@@H]([C@@H](C)[C@@H](OC)[C@H](C)C(=O)O)O3)O2)O1` [monensin], the “monensin found in solution in propylene glycol” value in data set [2] is 50%.
